Common to all, as to test: NCI tumour cell line growth inhibition, 48 h
Assay [1] has as its system DU-145 prostate.
The test system of assay [2] is KM12 colon.
For assay [3], the system named is MALME-3M melanoma.
Assay [4] deals with MDA-MB-231 breast.
The subject of assay [5] is NCI-H23 lung.
The test system of assay [6] is OVCAR-3 ovarian.
Assay [7] deals with SF-539 CNS.
Assay [8] relates to SK-MEL-2 melanoma.
Assay [9] has as its system SNB-75 CNS.
For assay [10], the system named is EKVX NSCLC.

“And” between values parts separate entries of the source, which are not always exact repeats. Equal entries are not always repeated.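 48-hour exposure; five concentrations; linearly interpolated endpoints. Here, GI50 denotes the concentration required for 50% inhibition of growth. TGI denotes the concentration required for complete inhibition of growth.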

On to `Cc1cc([N+](=O)[O-])ccc1NS(=O)(=O)c1cc(Cl)ccc1Cl`, for which the GI50 in assay [1] was 5.37 µM; in assay [2] it was 4.04 µM; in assay [3], 2.33 µM; in assay [4] it was 3.36 µM; in assay [5], 3 µM; in assay [6], 3.24 µM. Also, the results for the GI50 in [7], in [8] and in assay [9] were 3.45 µM, 2.67 µM and 2.98 µM, respectively. For the same compound, the TGI in assay [1] was over 100 µM; in [2], 34.5 µM; in [3], 6.83 µM; in [4], 16.2 µM; in [5] it was 9.99 µM; in assay [6], over 46.6 µM. Moreover, the TGI in assay [7] amounted to 20.7 µM; in [8] it was 8.56 µM; in assay [9], 38.3 µM.
Turning to `COc1ccc2c(c1)CCc1[nH]nc(-c3cc(OC)c(OC)c(OC)c3)c1-2`, the GI50 in [1], in assay [2], in assay [3], in [4], in [5] and in [6] was under 0.01 µM throughout. Further, the GI50 in [7], in assay [8] and in assay [9] was under 0.01 µM each time. The TGI in assay [1] was over 100 µM; in assay [2], 11.8 µM; in assay [3], 33.9 µM; in assay [4] it was 44.8 µM; in assay [5], 3.53 µM; in assay [6] it was 14.7 µM. Besides, the TGI in assay [7] is under 0.01 µM; in assay [8], 26.8 µM; in assay [9], 26.1 µM.
Turning to `O=C1C(Cl)=C(Nc2cccc(O)c2)C(=O)N1Cc1ccc(Cl)cc1`, the GI50 in [1] is 5.48 µM; in [10], 13.6 µM; in [2], 2.11 µM; in assay [3], 0.464 µM; in [4], 1.1 µM; in assay [5], 2.17 µM. The GI50 in assay [6] is 1.43 µM; in assay [7] it was 2.63 µM; in assay [8] it was 1.83 µM. Also, the TGI was found to be 24.1 µM in assay [1]; 48.6 µM in assay [10]; 11.3 µM in [2]; 8.11 µM in assay [3]; 5.64 µM in assay [4]; 8.31 µM in [5]. The TGI came out at 5.86 µM in assay [6], 16.6 µM in assay [7] and 9.36 µM in assay [8].
As to `C[n+]1c2ccccc2c(Nc2ccc(NS(=O)(=O)CCCCN=C(N)N)cc2)c2ccc(N)cc21`, the GI50 is 0.163 µM in assay [1]; 3.5 µM in [2]; 4.06 µM in [3]; 43.6 µM in assay [4]; 0.152 µM in assay [5]; 10.2 µM in assay [6]. Besides, the GI50 in assay [7] was 3.37 µM; in [8] it was 18.5 µM; in assay [9], 1.48 µM. Also, the TGI in assay [1] is 66.4 µM; in assay [2], over 79.1 µM; in assay [3] it was 35.2 µM; in [4] it was over 100 µM; in assay [5] it was 90.4 µM; in [6], over 80.2 µM. The TGI in assay [7] is over 100 µM; in assay [8], 50.6 µM; in [9], over 100 µM.
Take `CC1(C)N=C(N)N=C(N)N1c1ccc(CCc2ccc(Cl)cc2S(=O)(=O)F)c(Cl)c1`: the GI50 in assay [1] is 5.91 µM; in assay [10], 11.3 µM; in assay [2], 4.63 µM; in [3], 14.7 µM; in [4] it was 10.3 µM; in [5], 6.51 µM. For the same compound, the GI50 was 4.82 µM in [6], 5.54 µM in [7] and 8.44 µM in assay [9]. Besides, the TGI in assay [1] was over 100 µM; in [10], over 100 µM; in [2], 17.6 µM; in assay [3], 60.3 µM; in assay [4], 67.5 µM; in [5], over 100 µM. Also, the figures for the TGI in assay [6], in assay [7] and in assay [9] were 21.4 µM, 26.1 µM and 27.3 µM, respectively.
In the case of `CN1CCN(C(=O)c2c(NC(=O)NS(=O)(=O)c3ccccc3)sc3c2CCCCC3)CC1`, the GI50 in assay [1] is 41 µM; in [10], 33.7 µM; in assay [2], 29.3 µM; in assay [4], 27.5 µM; in assay [5] it was 24.3 µM; in [6] it was 39.6 µM. Also, the values for the GI50 in [7] and in [8] were 29.7 µM and 60.3 µM, respectively. Further, the TGI in assay [1] was over 100 µM; in assay [10], 98.7 µM; in assay [2] it was 80.1 µM; in [4], 79.6 µM; in [5] it was 52.1 µM; in assay [6], over 100 µM. Besides, the figures for the TGI in assay [7] and in [8] were 69.9 µM and over 100 µM, respectively.
As for `COc1c2c(c(CC=C(C)C)c3oc(=O)c(-c4ccc(O)cc4)c(O)c13)OC(C)(C)C=C2`, the TGI in [1] was over 100 µM; in assay [10], 95.8 µM; in [2] it was 35 µM; in assay [3], 70.2 µM; in [4], 65 µM; in assay [5], over 100 µM. Besides, the TGI was found to be 67.2 µM in assay [6], 32.8 µM in [7] and 52.8 µM in [8].
Regarding `c1ccc(Nn2c(CCCCCCCCc3nnc(COc4ccccc4)n3Nc3ccccc3)nnc2COc2ccccc2)cc1`, the GI50 in [1] is 35 µM and > 300 µM; in [2], 5.7 µM and 2.69 µM; in [3] it was 27.5 µM and 25.7 µM; in assay [4] it was 12.4 µM; in assay [5] it was 37.2 µM and 76.8 µM; in assay [6] it was 16.5 µM and 41.2 µM. Further, the GI50 in assay [7] was 7.23 µM; in assay [8] it was 13.8 µM and 25.5 µM; in assay [9], 48.8 µM and 49.2 µM. In addition, the TGI in [1], in assay [2], in [3], in [4], in assay [5] and in assay [6] was over 300 µM in each case. Further, the TGI in assay [7] was > 60.5 µM and 20 µM; in assay [8] it was > 63.4 µM and 252 µM; in assay [9], over 300 µM.

Values taken from PubChem BioAssay (NCI).
